Laboratory results taken from patent US20260294864A1, “PHARMACEUTICAL COMPOSITION FOR THE TREATMENT AND PREVENTION OF HPV” (NP1 SRL, priority 2022, published 2026).

Key:
HPV transformed cells [1] = experiment: Anti-clonal effect on HPV transformed cells (cell line not stated); assay type: cell-based, human; settings: for clonal inhibition in combination / anticlonogenic / anti-clonal effect: summary statement; for anticlonogenic / anti-clonal effect / IC50 / IRR (inhibitory relative rate): isolated compound; for IC50: Homo sapiens, minimal concentration reducing 50% of CFU of treated versus control, read-out: CID50 (50% clonal inhibitory dose), isolated polyphenols; for IRR (inhibitory relative rate): reverse ratio of CID50 to the reference CID50 of Quercetin (=1)
Method: The inhibitory relative rate (IRR) (fourth column) provides an efficacy ranking of molecules.
The anti-clonogenic activity was evaluated both by the current standard qualitative plating efficiency assay and by quantitative live cell imaging analysis (INCUCYTE S3 Live Cell Analysis Imaging System—Sartorius Welwyn Garden City, Hertfordshire, UK). For qualitative plating efficiency assay cells were seeded at ‘clonal’ density (i.e., 0.5 cell/mm^2) either in medium containing the testing molecules or with plain medium and incubated without any further manipulation. After 9-14 days, according to the cell line specific proliferative index, the cultures were decanted and stained with 0.2% CV/methanol for 5 min at room temperature. All conditions were tested in triplicates in a 6-well culture plate. The anti-clonogenic activity of the treatments was evaluated using the colony forming units (CFU) of treated versus control cultures. The minimal concentration which could reduce 50% of the CFU of treated versus control culture was defined as colony-forming Inhibitory concentration (CID50). For quantitative evaluation cells were seeded in 96-well microplates at the above density and condition and allowed to grow the subsequent 8-day incubation in the INCUCYTE S3 Imaging System. Images were acquired at 12-hours intervals and colony formation and percentage of growth area covered (confluency) were then monitored through automated image analysis. The analysis parameters were as follows: segmentation adjustment=0.4; hole fill <5,000 μm^2; adjusted pixel=−2.

HeLa cells = experiment: Anti-clonogenic activity on HeLa cells (plating efficiency assay / live cell imaging); assay type: cell-based, human; settings: for clonal inhibition in combination with Apigenin: 50 μM combined with Apigenin 25 μM; for clonal inhibition in combination with Apigenin / end point clonal assay, clonal inhibition alone: FIG. 9-11; for clonal inhibition in combination with Galangin: 50 μM combined with Galangin 12.5 μM, FIG. 9-10; for end point clonal assay, clonal inhibition alone / Anti-clonal effect: 50 μM; for end point clonal assay, clonal inhibition alone: administered alone; for Anti-clonal effect: isolated, FIG. 1
Method: Panel C and D: diagrammatic topographical maps of treatments and growth conditions on plates A and B respectively.
Panel A. Hela cells were challenged with serial twofold dilutions of 50 μM Luteolin (in columns 1-6) and 100 μM Galangin (columns 7-10). Hela control untreated cells in columns 11-12.
(§1) A total of 6 cell lines, outlined in Table 3, were used for this study. The cell lines were obtained from Research Centres of cell biology in Italy, United Kingdom and Germany. This research raised no ethical concern being based on entirely in vitro experiments using no patients' derived information or material. In compliance with National and International ethical rules, no informed consent is needed.
(§2) HeLa cells are the oldest continuous cell lines and were originally derived from a HPV18 positive metastatic cervical carcinoma (Scherer W F et al 1953). Siha cells are an epithelioid like cell line derived from a HPV16-positive invasive cervical squamous carcinoma (Friedel F et al 1970). Ca-Ski cells are a line harboring multiple copy of transcriptionally active HPV16 genomes (Baker C C et al 1984). Both Hela and Siha were a kind gift of prof MS Campo, The Beatson Institute for Cancer Research, Glasgow, Scotland. These two cell lines because of their versatility and ease of use were used for most of experiments reported. Ca-Ski cells were obtained through the courtesy of prof. Matthias Durst, at the Deutsch Krebsforschungzentrum—Heidelberg, FRG. These cells used together with Siha provide a model for the genetic instability and variability of cervical cancers. HK-168 is an immortalized, non-tumorigenic, continuous cell line derived from human skin keratinocytes in vitro transformed with whole HPV16 genome (De Marco F et al 2007). This cell line is reputed to recapitulate le biological features of transformed dysplastic cells and was used in preliminary experiments to set the experimental dosages and conditions. The ME-180 cells are a cell line harboring a few, transcriptionally active, copies of HPV68 and provide an in vitro model for dysplastic/neoplastic lesions induced by HPV with Intermediate oncogenic Risk (Yee C C et al 1985). The HaCaT cells, derived from a solar skin lesion by Petra Boukamp et al (1988) are here used as an in vitro equivalent of Ultra-Violet induced pre-neoplastic epithelial cells to rule out possible direct toxic effects of polyphenols. Both HaCaT and ME-180, were kindly donated by Prof. Matthias Durst. Hela, Siha, Ca-Ski, ME-180 and HaCaT were all grown in high glucose DMEM supplemented with 10% fetal calf serum (FCS). The HK-168 cells, which retained the ability to terminally differentiate under high Ca^2+ and FCS concentrations, were grown in K-SFM, a chemically defined medium supplemented with human EGF and bovine pituitary extract (ThermoFisher Scientific, Life Technologies, Monza—MI). Each cell line was sub-cultured twice a week at the appropriate split ratio according to the specific proliferative index. In no case antibiotics or antimycotics were added to the culture media. For the present study, all cell lines were retrieved from an in-house cell archive facility.
The anti-clonogenic activity was evaluated both by the current standard qualitative plating efficiency assay and by quantitative live cell imaging analysis ([…] S3 Live Cell Analysis Imaging System—Sartorius Welwyn Garden City, Hertfordshire, UK).

[2] = tested on: PC3 prostate cancer cells; settings: PC3 cells (Lansky E P et al 2005); cited from earlier work
ME-180 cells = experiment: Anti-clonogenic activity on ME-180 cells; assay type: cell-based, human; settings: compared with HeLa data of FIG. 10
Text: (§3) HeLa cells are the oldest continuous cell lines and were originally derived from a HPV18 positive metastatic cervical carcinoma (Scherer W F et al 1953). Siha cells are an epithelioid like cell line derived from a HPV16-positive invasive cervical squamous carcinoma (Friedel F et al 1970). Ca-Ski cells are a line harboring multiple copy of transcriptionally active HPV16 genomes (Baker C C et al 1984). Both Hela and Siha were a kind gift of prof MS Campo, The Beatson Institute for Cancer Research, Glasgow, Scotland. These two cell lines because of their versatility and ease of use were used for most of experiments reported. Ca-Ski cells were obtained through the courtesy of prof. Matthias Durst, at the Deutsch Krebsforschungzentrum—Heidelberg, FRG. […]
(§4) The anti-clonogenic activity was evaluated both by the current standard qualitative plating efficiency assay and by quantitative live cell imaging analysis (INCUCYTE S3 Live Cell Analysis Imaging System—Sartorius Welwyn Garden City, Hertfordshire, UK). […] The anti-clonogenic activity of the treatments was evaluated using the colony forming units (CFU) of treated versus control cultures. […] For quantitative evaluation cells were seeded in 96-well microplates at the above density and condition and allowed to grow the subsequent 8-day incubation in the INCUCYTE S3 Imaging System. […]

Ca-Ski cells = experiment: Anti-clonogenic activity on Ca-Ski cells; assay type: cell-based, human; settings: compared with HeLa data of FIG. 10
Text: as §3, §4

gastric cancer cells = settings: wound-healing and Boyden Chamber assays (Ho H H et al 2010); cited from earlier work
glioma cells = settings: wound-healing and Boyden Chamber assays (Lu J et al 2010); cited from earlier work
Siha cells [3] = experiment: Antiproliferative effect on Siha cells, live cell analysis; assay type: cell-based, human; settings: Siha 1000 cells/well; for antiproliferative effect: 50 μM, FIG. 2
Method: FIG. 2: live cell analysis of RNPs antiproliferative effect. Siha cells were seeded at 1000 cells/well in a 96 well plate and allowed to adhere overnight. The plate was then washed twice with PBS and replenished with 100 microliter/well fresh medium plus 50 μM of each compound. Images were taken every 12 hours; Growth curves were drawn plotting the percentage of confluence versus time. […] In fact, their growth curves outline a single spindle completely overlapping and masking the one of control untreated cells. Conversely, a distinct anti-proliferative effect is evident in panel B- where the growth curves of RNP 9 Kaempferol (solid squares), RNP 12 Luteolin (solid diamonds), RNP 16 Apigenin (solid circles) and control untreated cells (solid stars) are depicted. […] Each point represents the mean of six independent replicas. Bar width represents the Standard Deviation (SD). Consistent results were also obtained by HeLa and ME-180 cells
(§5) For antiproliferative effect cells were seeded in 96-well microplates at 1000 cells/per well (i.e.: 30 cell/mm^2), a density allowing exponential growth rate for the subsequent 8-day incubation. After overnight adhesion cell monolayers were washed and replenished with fresh media with different testing molecules, plain medium served as cell growth control.
(§6) Cell growth was then monitored by automated INCUCTE S3 imaging Systems. Images were acquired at 12-hours intervals. The analysis parameters were as follows: segmentation adjustment=0.9; hole fill <7,000 μm^2; adjusted pixel=0.
Data for growth curves, anti-clonal and Antiproliferative assays were obtained from at least three independent experiments. Each data point of quantitative anti-proliferative or anti-clonal experiments represents the mean (±SD) of eight independent replicates. Data were analyzed and plotted using Prism 6.0 software (GraphPad Software, San Diego, CA).

Siha cells [4] = experiment: Anti-clonogenic activity on SiHa cells (plating efficiency assay / live cell imaging); assay type: cell-based, human; settings: for inhibition at 25 µM: Homo sapiens, single compound, 24 hours treatment then wash-out, FIG. 12, read-out: clonal inhibition
Method: In this experiment Kaempferol and Apigenin were administered to Siha cells at decremental concentrations, either in combination or alone, as shown in the topographical map (in panel C). […] Histograms in Panel B depict the number of colonies per well as evaluated by visual inspection and count.
The Histograms in Panel B depict the number of colonies per well as evaluated by visual inspection and count. • In Panel C a topographical map of plate treatments. Each condition was assayed in duplicate.
Kaempferol, Galangin, Luteolin and their combination were administered to SiHa cells at the concentrations of 25 μM each and of 12,5/12,5/6,25 μM for their combination. Treatments were allowed to stay on cells either for 2 or 4/8/16/24 hours. After that, treatments were washed out, cells washed two times with PBS, replenished with fresh medium and the anti-clonal effect was then monitored by live cell image analysis.
as §1, §2

HPV transformed cells [5] = experiment: Antiproliferative effect on HPV transformed cells (cell line not stated); assay type: cell-based, human; settings: summary statement, isolated compound
Method: as §5, §6

| SMILES | anticlonogenic / anti-clonal effect (HPV transformed cells [1]) | clonal inhibition in combination with Apigenin (HeLa cells; HeLa) | clonal inhibition in combination with Galangin (HeLa cells; HeLa) | end point clonal assay, clonal inhibition alone (HeLa cells; HeLa) | Anti-clonal effect (HeLa cells; HeLa) | antiproliferative effect (Siha cells [3]) | IC50 (HPV transformed cells [1]) [µM] | IRR (inhibitory relative rate) (HPV transformed cells [1]) | inhibition at 25 µM (Siha cells [4]; SiHa) [%] | antiproliferative effect (HPV transformed cells [5]) | further results |
| --- | --- | --- | --- | --- | --- | --- | --- | --- | --- | --- | --- |
| O=C(O)/C=C/c1ccc(O)c(O)c1 [Caffeic acid] | devoid of any direct activity | almost complete clonal inhibition | almost complete clonal inhibition | neither of them induced any effect | devoid of any significant anticlonogenic effect |  |  |  |  |  | clonal inhibition in combination (HPV transformed cells [1]; combined with Galangin or Quercetin): a certain grade of clonal inhibition; anticlonogenic / anti-clonal effect (HPV transformed cells [1]; listed as Caffeic): devoid of. any direct anticlonogenic activity; synergistic effect with Galangine and Apigenin (HeLa cells; in association, HeLa, FIG. 9): synergistic effect; reduction of invasiveness [2]: 50% |
| COc1cc(/C=C/C(=O)O)ccc1O [Ferulic acid] | devoid of. any direct anticlonogenic activity | almost complete clonal inhibition | almost complete clonal inhibition | Neither of them induced any effect | devoid of any significant anticlonogenic effect |  |  |  |  |  | clonal inhibition in combination (HPV transformed cells [1]; combined with Galangin, Chrysin or Apigenin): a certain grade of clonal inhibition; clonal inhibition in combination with Chrysin (HeLa cells; 50 μM combined with Chrysin 25 μM, HeLa, FIG. 10-11): almost complete clonal inhibition; synergy with Galangine, Apigenin and Chrysin (HeLa cells; in association, HeLa, FIG. 10-11): synergize; clonal inhibition with Galangin, Chrysin or Apigenin (ME-180 cells): Superimposable results; clonal inhibition with Galangin, Chrysin or Apigenin (Ca-Ski cells): Superimposable results |
| O=C(O)c1cc(O)c(O)c(O)c1 [Gallic acid] |  |  |  |  |  |  |  |  |  |  | migration of gastric cancer cells (gastric cancer cells): reduce the migration; migration of glioma cells (glioma cells): reduce the migration |
| O=c1c(O)c(-c2ccc(O)cc2)oc2cc(O)cc(O)c12 [Kaempferol] | sharp anticlonogenic and antiproliferative effect |  |  |  | almost complete suppression of clonal activity | distinct, although milder effect | 25 | 2 | ~50 | sharp anticlonogenic and antiproliferative effect | inhibition at 50 µM (Siha cells [3]; Homo sapiens, FIG. 2, read-out: suppression of proliferation): ~40%; clonal efficiency versus control untreated cells (Siha cells [4]; 12.5 μM, alone, Siha, FIG. 4): no difference to control untreated cells |
| O=c1cc(-c2ccc(O)c(O)c2)oc2cc(O)cc(O)c12 [Luteolin] | sharp anticlonogenic and antiproliferative effect |  |  |  | almost complete suppression of clonal activity | almost complete suppression of proliferation | 6.25 | 8 | ~50 | sharp anticlonogenic and antiproliferative effect | antiproliferative effect (Siha cells [3]; listed as luteolin): sharp antiproliferative effect; end-point anti-clonal effect versus control untreated cells (Siha cells [4]; 6.25 μM, alone, SiHa, FIG. 6-8): no difference to control untreated cells; IC50 (HeLa cells; Homo sapiens, HeLa, serial twofold dilutions (Luteolin from 50 μM, Galangin from 100 μM), live cell image analysis, FIG. 3, read-out: CID50 (50% clonal inhibitory dose)): 6.25 µM; inhibition at up to 50 µM (HeLa cells; Homo sapiens, wells D:1-6, serial twofold dilutions of 50 μM, HeLa, FIG. 3, read-out: anti-clonal titration, inhibition in wells D:1-6): ~50%; anti-clonal effect at concentrations above CID50 (HeLa cells; higher concentrations than CID50, HeLa, FIG. 3): completely suppressive; anti-clonal titration, inhibition in wells C:1-6 (HeLa cells; wells C:1-6, serial twofold dilutions of 50 μM, HeLa, FIG. 3): almost complete inhibition |
